Source: ChEMBL document CHEMBL5518215, “Unlocking Antibacterial Potential: Key-Site-Based Regulation of Antibacterial Spectrum of Peptides” (J Med Chem, 2024)

Assays:
Listeria monocytogenes [1] = assay: Antimicrobial activity against Listeria monocytogenes 1.10753 assessed as absence bacterial growth measured after 18 to 24 hrs incubation by NCCLS method; format: functional; settings: time 18-24 hrs
[2] = Cytotoxicity against mouse RAW264.7 cells assessed as cell survival rate measured after 8 hrs by MTT assay; format: toxicity, cell-based
Escherichia coli [3] = assay: Antimicrobial activity against Escherichia coli 25922 assessed as absence bacterial growth measured after 18 to 24 hrs incubation in presence of 12.5% serum by NCCLS method; format: functional; settings: time 18-24 hrs
Escherichia coli [4] = assay: Antimicrobial activity against Escherichia coli 25922 assessed as absence bacterial growth measured after 18 to 24 hrs incubation in presence of FeCl3 by NCCLS method; format: functional; settings: time 18-24 hrs
Escherichia coli [5] = assay: Antimicrobial activity against Escherichia coli 25922 assessed as absence bacterial growth measured after 18 to 24 hrs incubation in presence of MgCl2 by NCCLS method; format: functional; settings: time 18-24 hrs
Acinetobacter baumannii [6] = assay: Antimicrobial activity against Acinetobacter baumannii 1.6769 assessed as absence bacterial growth measured after 18 to 24 hrs incubation by NCCLS method; format: functional; settings: time 18-24 hrs
Escherichia coli [7] = assay: Antimicrobial activity against Escherichia coli K88 assessed as absence bacterial growth measured after 18 to 24 hrs incubation by NCCLS method; format: functional; settings: time 18-24 hrs
Staphylococcus aureus [8] = assay: Antimicrobial activity against Methicillin-resistant Staphylococcus aureus 43300 assessed as bacterial killing measured after 16 hrs incubation; format: functional
[9] = Cytotoxicity against human HEK-293T cells assessed as cell survival rate at 64 uM measured after 8 hrs by MTT assay relative to control; format: toxicity, cell-based; settings: read-out: Activity
Pseudomonas aeruginosa [10] = assay: Antimicrobial activity against Pseudomonas aeruginosa 27853 assessed as absence bacterial growth measured after 18 to 24 hrs incubation by NCCLS method; format: functional; settings: time 18-24 hrs
Salmonella typhimurium [11] = assay: Antimicrobial activity against Salmonella typhimurium C7731 assessed as absence bacterial growth measured after 18 to 24 hrs incubation by NCCLS method; format: functional, Salmonella enterica subsp. enterica serovar Typhimurium; settings: Salmonella enterica, time 18-24 hrs
Staphylococcus aureus [12] = assay: Antimicrobial activity against Staphylococcus aureus 29213 assessed as absence bacterial growth measured after 18 to 24 hrs incubation by NCCLS method; format: functional; settings: time 18-24 hrs
Escherichia coli [13] = assay: Antimicrobial activity against Escherichia coli K88 assessed as bacterial killing measured after 16 hrs incubation; format: functional
Enterococcus faecalis [14] = assay: Antimicrobial activity against Enterococcus faecalis 29212 assessed as bacterial killing measured after 16 hrs incubation; format: functional
Escherichia coli [15] = assay: Antimicrobial activity against Escherichia coli 25922 assessed as absence bacterial growth measured after 18 to 24 hrs incubation in presence of 50% serum by NCCLS method; format: functional; settings: time 18-24 hrs
Salmonella typhimurium [16] = assay: Antimicrobial activity against Salmonella typhimurium 14028 assessed as absence bacterial growth measured after 18 to 24 hrs incubation by NCCLS method; format: functional, Salmonella enterica subsp. enterica serovar Typhimurium; settings: Salmonella enterica, time 18-24 hrs
Bacillus cereus [17] = assay: Antimicrobial activity against Bacillus cereus 1.932 assessed as absence bacterial growth measured after 18 to 24 hrs incubation by NCCLS method; format: functional; settings: time 18-24 hrs
Escherichia coli [18] = assay: Antimicrobial activity against Escherichia coli 25922 assessed as absence bacterial growth measured after 18 to 24 hrs incubation by NCCLS method; format: functional; settings: time 18-24 hrs
Escherichia coli [19] = assay: Antimicrobial activity against Escherichia coli 25922 assessed as absence bacterial growth measured after 18 to 24 hrs incubation in presence of 25% serum by NCCLS method; format: functional; settings: time 18-24 hrs
Staphylococcus aureus [20] = assay: Antimicrobial activity against Staphylococcus aureus 29213 assessed as absence bacterial growth measured after 18 to 24 hrs incubation by NCCLS m; format: functional; settings: time 18-24 hrs
Acinetobacter baumannii [21] = assay: Antimicrobial activity against Acinetobacter baumannii 1.6769 assessed as bacterial killing measured after 16 hrs incubation; format: functional
Salmonella typhimurium [22] = assay: Antimicrobial activity against Salmonella typhimurium C7731 assessed as bacterial killing measured after 16 hrs incubation; format: functional, Salmonella enterica subsp. enterica serovar Typhimurium; settings: Salmonella enterica
[23] = system: Staphylococcus epidermidis; assay: Antimicrobial activity against Staphylococcus epidermidis 12228 assessed as bacterial killing measured after 16 hrs incubation; format: functional
Escherichia coli [24] = assay: Antimicrobial activity against Escherichia coli 25922 assessed as absence bacterial growth measured after 18 to 24 hrs incubation in presence of NH4Cl by NCCLS method; format: functional; settings: time 18-24 hrs
[25] = Antimicrobial activity against Salmonella pullorum C7913 assessed as bacterial killing measured after 16 hrs incubation; format: functional, Salmonella enterica subsp. enterica serovar Pullorum; settings: Salmonella enterica
[26] = Cytotoxicity against mouse RAW264.7 cells assessed as cell survival rate at 32 to 64 uM measured after 8 hrs by MTT assay relative to control; format: toxicity, cell-based; settings: dose 32-64 µM, read-out: Activity
Erythrocyte = assay: Hemolytic activity in human RBC at effective concentration measured after 1 hr by microplate reader analysis; format: toxicity, cell-based
Pseudomonas aeruginosa [27] = assay: Antimicrobial activity against Pseudomonas aeruginosa 27853 assessed as bacterial killing measured after 16 hrs incubation; format: functional
Escherichia coli [28] = assay: Antimicrobial activity against Escherichia coli 25922 assessed as absence bacterial growth measured after 18 to 24 hrs incubation in presence of NaCl by NCCLS method; format: functional; settings: time 18-24 hrs
Bacillus cereus [29] = assay: Antimicrobial activity against Bacillus cereus 1.932 assessed as bacterial killing measured after 16 hrs incubation; format: functional
Staphylococcus aureus [30] = assay: Antimicrobial activity against Staphylococcus aureus 29213 assessed as bacterial killing measured after 16 hrs incubation; format: functional
[31] = Cytotoxicity against porcine IPEC-J2 cells assessed as cell survival rate at 64 uM measured after 8 hrs by MTT assay relative to control; format: toxicity, cell-based, Sus scrofa; settings: pig, read-out: Activity
[32] = Hemolytic activity in human RBC at effective concentration at 128 uM measured after 1 hr by microplate reader relative to control; format: toxicity, cell-based, Erythrocyte; settings: human red blood cells (erythrocytes), read-out: Activity
Escherichia coli [33] = assay: Antimicrobial activity against Escherichia coli 25922 assessed as absence bacterial growth measured after 18 to 24 hrs incubation in presence of KCl by NCCLS method; format: functional; settings: time 18-24 hrs
Listeria monocytogenes [34] = assay: Antimicrobial activity against Listeria monocytogenes 1.10753 assessed as bacterial killing measured after 16 hrs incubation; format: functional
Salmonella typhimurium [35] = assay: Antimicrobial activity against Salmonella typhimurium 14028 assessed as bacterial killing measured after 16 hrs incubation; format: functional, Salmonella enterica subsp. enterica serovar Typhimurium; settings: Salmonella enterica
Escherichia coli [36] = assay: Antimicrobial activity against Escherichia coli 25922 assessed as bacterial killing measured after 16 hrs incubation; format: functional
[37] = Antimicrobial activity against Salmonella pullorum C7913 assessed as absence bacterial growth measured after 18 to 24 hrs incubation by NCCLS method; format: functional, Salmonella enterica subsp. enterica serovar Pullorum; settings: Salmonella enterica, time 18-24 hrs
[38] = system: Staphylococcus epidermidis; assay: Antimicrobial activity against Staphylococcus epidermidis 12228 assessed as absence bacterial growth measured after 18 to 24 hrs incubation by NCCLS method; format: functional; settings: time 18-24 hrs
[39] = Cytotoxicity against human HEK-293T cells assessed as cell survival rate measured after 8 hrs by MTT assay; format: toxicity, cell-based
[40] = Cytotoxicity against porcine IPEC-J2 cells assessed as cell survival rate measured after 8 hrs by MTT assay; format: toxicity, cell-based, Sus scrofa; settings: pig
Staphylococcus aureus [41] = assay: Antimicrobial activity against Staphylococcus aureus 25923 assessed as bacterial killing measured after 16 hrs incubation; format: functional
Enterococcus faecalis [42] = assay: Antimicrobial activity against Enterococcus faecalis 29212 assessed as absence bacterial growth measured after 18 to 24 hrs incubation by NCCLS method; format: functional; settings: time 18-24 hrs
Escherichia coli [43] = assay: Antimicrobial activity against Escherichia coli 25922 assessed as absence bacterial growth measured after 18 to 24 hrs incubation in presence of ZnCl2 by NCCLS method; format: functional; settings: time 18-24 hrs
Staphylococcus aureus [44] = assay: Antimicrobial activity against Methicillin-resistant Staphylococcus aureus 43300 assessed as absence bacterial growth measured after 18 to 24 hrs incubation by NCCLS method; format: functional; settings: time 18-24 hrs

H-GKLWLKGGKLWLKGAKLWLKG-NH2
< 10%: hemolysis at 1 h, 128 µM [32]
> 64 µM: IC50 at 8 h [2] | IC50 at 8 h [39] | IC50 at 8 h [40]
60%: viability at 8 h, up to 64 µM [26]
8 µM: MIC (Escherichia coli [5]) | MBC (Salmonella typhimurium [22]) | MBC (Pseudomonas aeruginosa [27])
> 32 µM: MIC (Listeria monocytogenes [1]) | MIC (Escherichia coli [15]) | MIC (Escherichia coli [19]) | MBC (Listeria monocytogenes [34])
32 µM: MIC (Escherichia coli [3])
4 µM: MBC (Staphylococcus aureus [8]) | MIC (Pseudomonas aeruginosa [10]) | MIC (Salmonella typhimurium [11]) | MIC (Staphylococcus aureus [12]) | MBC (Enterococcus faecalis [14]) | MIC (Salmonella typhimurium [16]) | MIC (Bacillus cereus [17]) | MIC (Staphylococcus aureus [20]) | MBC [23] | MBC (Bacillus cereus [29]) | MBC (Staphylococcus aureus [30]) | MBC (Salmonella typhimurium [35]) | MIC [38] | MBC (Staphylococcus aureus [41]) | MIC (Enterococcus faecalis [42])
16 µM: MIC (Escherichia coli [28])
> 128 µM: HC10 (Erythrocyte)
> 80%: viability at 8 h, 64 µM [9] | viability at 8 h, 64 µM [31]
1 µM: MIC (Escherichia coli [7]) | MBC (Escherichia coli [13]) | MIC [37]
2 µM: MIC (Escherichia coli [4]) | MIC (Acinetobacter baumannii [6]) | MIC (Escherichia coli [18]) | MBC (Acinetobacter baumannii [21]) | MIC (Escherichia coli [24]) | MBC [25] | MIC (Escherichia coli [33]) | MBC (Escherichia coli [36]) | MIC (Escherichia coli [43]) | MIC (Staphylococcus aureus [44])

H-GKLWLKGGKLWLKGGKLWLKA-NH2
> 128 µM: HC10 (Erythrocyte)
16 µM: MIC (Staphylococcus aureus [12]) | MBC (Enterococcus faecalis [14]) | MIC (Enterococcus faecalis [42])
< 10%: hemolysis at 1 h, 128 µM [32]
> 32 µM: MIC (Listeria monocytogenes [1]) | MIC (Escherichia coli [15]) | MIC (Bacillus cereus [17]) | MIC (Escherichia coli [19]) | MIC (Staphylococcus aureus [20]) | MBC (Bacillus cereus [29]) | MBC (Listeria monocytogenes [34]) | MBC (Staphylococcus aureus [41])
2 µM: MIC (Escherichia coli [4]) | MIC (Salmonella typhimurium [16]) | MIC (Escherichia coli [18]) | MIC (Escherichia coli [24]) | MIC (Escherichia coli [33]) | MIC [37] | MIC (Escherichia coli [43])
> 64 µM: IC50 at 8 h [2] | IC50 at 8 h [39] | IC50 at 8 h [40]
4 µM: MIC (Acinetobacter baumannii [6]) | MIC (Pseudomonas aeruginosa [10]) | MIC (Salmonella typhimurium [11]) | MBC (Acinetobacter baumannii [21]) | MBC [25] | MBC (Pseudomonas aeruginosa [27]) | MBC (Escherichia coli [36])
0.5 µM: MIC (Escherichia coli [7]) | MBC (Escherichia coli [13])
> 80%: viability at 8 h, 64 µM [9] | viability at 8 h, 64 µM [31]
32 µM: MIC (Escherichia coli [3]) | MIC (Escherichia coli [28]) | MBC (Staphylococcus aureus [30])
8 µM: MIC (Escherichia coli [5]) | MBC (Staphylococcus aureus [8]) | MBC (Salmonella typhimurium [22]) | MBC [23] | MBC (Salmonella typhimurium [35]) | MIC [38] | MIC (Staphylococcus aureus [44])
